Source: US20110015065A1 (priority 2008, published 2011)

Experiments:
Phakopsora pachyrhizi = assay: Curative control of soybean rust on soy beans caused by Phakopsora pachyrhizi (glasshouse); format: in vivo; settings: comparative trial (Use example 7), untreated 100
Method: The active compounds were formulated separately or together as a stock solution comprising 25 mg of active compound which was made up to 10 ml using a mixture of acetone and/or dimethyl sulfoxide (DMSO) and the emulsifier Wettol EM 31 (wetting agent having emulsifying and dispersing action based on ethoxylated alkylphenols) in a volume ratio of solvent/emulsifier of 99 to 1. This solution was then made up to 100 ml using water. This stock solution was diluted with the solvent/emulsifier/water mixture described to the active compound concentration given below.
Leaves of pot-grown soybean seedlings were inoculated with spores of Phakopsora pachyrhizi. To ensure the success of the artificial inoculation, the plants were transferred to a humid chamber with a relative humidity of about 95% and 23 to 27° C. for 24 h. The next day the plants were sprayed to run-off with an aqueous suspension, containing the concentration of active ingredient or their mixture as described below. The plants were allowed to air-dry. Then the trial plants were cultivated for 14 days in a greenhouse chamber at 23-27° C. and a relative humidity between 60 and 80%. The extent of fungal attack on the leaves was visually assessed as % diseased leaf area.
The spray solutions were prepared as described for “Examples of the action against harmful fungi” (II. B).
The trial was conducted as described for Use example 3.

Pyricularia oryzae = format: cell-based; settings: 10 days after inoculation

COc1cc(CNS(=O)(=O)c2ccc(-c3ccc(C(F)(F)F)cc3C(F)(F)F)cc2)ccn1
Disease level (%) at 250 ppm (Phakopsora pachyrhizi): 100%

COc1cc(CNS(=O)(=O)c2ccc(-c3ccc(Cl)cc3Cl)cc2)ccn1 [Table C) I-76 according to WO06/097489]
Growth (%) at 2 ppm (Pyricularia oryzae): 68%

Cc1cnccc1CNS(=O)(=O)c1ccc(-c2ccc(Cl)cc2Cl)cc1
Growth (%) at 31 ppm (Pyricularia oryzae): 30%

COc1cc(CNS(=O)(=O)c2ccc(-c3ccc(C(F)(F)F)cc3C(F)(F)F)cc2)sn1 [I-2]
Disease level (%) at 250 ppm (Phakopsora pachyrhizi): 5%

Cn1nccc1CNS(=O)(=O)c1ccc(-c2ccc(Cl)cc2Cl)cc1 [I-46]
Growth (%) at 31 ppm (Pyricularia oryzae): 16%

COc1cc(CNS(=O)(=O)c2ccc(-c3ccc(Cl)cc3Cl)cc2)sn1 [I-3]
Growth (%) at 2 ppm (Pyricularia oryzae): 46%
